target: T1, Met receptor (EGFR/Met chimeric cells, EMR) (Homo sapiens, UniProt P08581); assay: Met Autophosphorylation Assay; format: biochemical; details: protocol P.130
T1 construct: expressed in transfected cells; the other entry of the earlier key: EGFR (P00533, Epidermal growth factor receptor)
In short: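 Met phosphorylation was measured by capture ELISA. Lysates (90 μg/100 μl, HNTG plus 1 mM PMSF) from transiently transfected EGFR/Met chimera (EMR) cells were bound for 60 min at room temperature to wells holding rabbit anti-Met (C-28) on goat anti-rabbit coat. Phosphotyrosine was the read-out.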

T1 sequence (P08581 with tags, fused parts or gaps): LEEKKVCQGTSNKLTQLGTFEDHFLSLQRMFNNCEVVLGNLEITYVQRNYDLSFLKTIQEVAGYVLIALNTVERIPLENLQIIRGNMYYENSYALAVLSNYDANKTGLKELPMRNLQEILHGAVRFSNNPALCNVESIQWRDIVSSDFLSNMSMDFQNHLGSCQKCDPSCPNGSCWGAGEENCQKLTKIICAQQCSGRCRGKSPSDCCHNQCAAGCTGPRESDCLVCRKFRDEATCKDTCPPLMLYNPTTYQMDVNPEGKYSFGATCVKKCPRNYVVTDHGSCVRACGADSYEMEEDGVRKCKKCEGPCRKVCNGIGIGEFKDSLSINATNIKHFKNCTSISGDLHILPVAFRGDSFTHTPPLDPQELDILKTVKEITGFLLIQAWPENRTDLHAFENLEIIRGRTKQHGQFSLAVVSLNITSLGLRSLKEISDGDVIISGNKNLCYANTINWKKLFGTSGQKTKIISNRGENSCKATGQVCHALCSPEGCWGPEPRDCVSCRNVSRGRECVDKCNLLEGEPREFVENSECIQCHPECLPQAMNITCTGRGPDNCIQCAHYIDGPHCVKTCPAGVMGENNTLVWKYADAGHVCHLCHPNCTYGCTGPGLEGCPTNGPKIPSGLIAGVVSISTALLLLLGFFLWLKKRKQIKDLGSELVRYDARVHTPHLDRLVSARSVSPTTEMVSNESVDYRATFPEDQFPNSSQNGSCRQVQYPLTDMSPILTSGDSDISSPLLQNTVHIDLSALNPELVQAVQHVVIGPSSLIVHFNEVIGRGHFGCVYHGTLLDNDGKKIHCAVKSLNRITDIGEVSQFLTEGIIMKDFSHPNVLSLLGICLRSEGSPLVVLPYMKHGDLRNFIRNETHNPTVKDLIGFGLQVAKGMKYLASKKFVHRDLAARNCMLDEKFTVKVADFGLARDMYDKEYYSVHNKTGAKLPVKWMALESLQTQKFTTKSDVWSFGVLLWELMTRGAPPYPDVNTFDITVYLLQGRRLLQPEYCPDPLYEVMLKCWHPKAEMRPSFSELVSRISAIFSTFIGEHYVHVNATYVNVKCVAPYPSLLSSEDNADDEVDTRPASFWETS

| SMILES | Met Kinase % Inhibition (P.130) |
| --- | --- |
| Cc1c(Br)ccc2c1C(=Cc1cccc(Oc3cccc(C(F)(F)F)c3)c1)C(=O)N2 [10737/C11] | 34.0% |
| CCOc1ccc(C=C2C(=O)Nc3ccc(S(=O)(=O)NC)cc32)cc1 [10737/D02] | 27.8% |
| CNS(=O)(=O)c1ccc2c(c1)C(=Cc1ccc(C)cc1C)C(=O)N2 [10737/D03] | 38.6% |
| CNS(=O)(=O)c1ccc2c(c1)C(=Cc1cc(F)ccc1F)C(=O)N2 [10737/D04] | 33.5% |
| CNS(=O)(=O)c1ccc2c(c1)C(=Cc1cccc(F)c1F)C(=O)N2 [10737/D05] | 41.8% |
| CNS(=O)(=O)c1ccc2c(c1)C(=Cc1ccc(OC)c(F)c1)C(=O)N2 [10737/D06] | 37.4% |
| CNS(=O)(=O)c1ccc2c(c1)C(=Cc1cc(C)ccc1C)C(=O)N2 [10737/D07] | 37.0% |
| CNS(=O)(=O)c1ccc2c(c1)C(=Cc1ccc3ccccc3c1)C(=O)N2 [10737/D08] | 42.0% |
| CNS(=O)(=O)c1ccc2c(c1)C(=Cc1ccc(Oc3ccccc3)cc1)C(=O)N2 [10737/D09] | 36.0% |
| CNS(=O)(=O)c1ccc2c(c1)C(=Cc1cccc(Oc3ccc(C(C)(C)C)cc3)c1)C(=O)N2 [10737/D10] | 24.8% |
| CNS(=O)(=O)c1ccc2c(c1)C(=Cc1cccc(Oc3cccc(C(F)(F)F)c3)c1)C(=O)N2 [10737/D11] | 43.4% |
| CCOc1ccc(C=C2C(=O)Nc3ccc(S(=O)(=O)Nc4ccc(C(F)(F)F)cc4)cc32)cc1 [10737/E02] | 53.0% |
| Cc1ccc(C=C2C(=O)Nc3ccc(S(=O)(=O)Nc4ccc(C(F)(F)F)cc4)cc32)c(C)c1 [10737/E03] | 13.4% |
| O=C1Nc2ccc(S(=O)(=O)Nc3ccc(C(F)(F)F)cc3)cc2C1=Cc1cc(F)ccc1F [10737/E04] | 79.3% |
| O=C1Nc2ccc(S(=O)(=O)Nc3ccc(C(F)(F)F)cc3)cc2C1=Cc1cccc(F)c1F [10737/E05] | 80.9% |
| COc1ccc(C=C2C(=O)Nc3ccc(S(=O)(=O)Nc4ccc(C(F)(F)F)cc4)cc32)cc1F [10737/E06] | 57.8% |
| Cc1ccc(C)c(C=C2C(=O)Nc3ccc(S(=O)(=O)Nc4ccc(C(F)(F)F)cc4)cc32)c1 [10737/E07] | 43.1% |
| O=C1Nc2ccc(S(=O)(=O)Nc3ccc(C(F)(F)F)cc3)cc2C1=Cc1ccc2ccccc2c1 [10737/E08] | 61.9% |
| O=C1Nc2ccc(S(=O)(=O)Nc3ccc(C(F)(F)F)cc3)cc2C1=Cc1ccc(Oc2ccccc2)cc1 [10737/E09] | 21.2% |
| CC(C)(C)c1ccc(Oc2cccc(C=C3C(=O)Nc4ccc(S(=O)(=O)Nc5ccc(C(F)(F)F)cc5)cc43)c2)cc1 [10737/E10] | 49.3% |
| O=C1Nc2ccc(S(=O)(=O)Nc3ccc(C(F)(F)F)cc3)cc2C1=Cc1cccc(Oc2cccc(C(F)(F)F)c2)c1 [10737/E11] | 24.8% |
| CCOc1ccc(C=C2C(=O)Nc3ccc(S(=O)(=O)N4CCOCC4)cc32)cc1 [10737/F02] | 67.4% |
| Cc1ccc(C=C2C(=O)Nc3ccc(S(=O)(=O)N4CCOCC4)cc32)c(C)c1 [10737/F03] | 28.0% |

| SMILES | Met Kinase % Inhibition (P.130) |
| --- | --- |
| O=C1Nc2ccc(S(=O)(=O)N3CCOCC3)cc2C1=Cc1cc(F)ccc1F [10737/F04] | 62.8% |
| O=C1Nc2ccc(S(=O)(=O)N3CCOCC3)cc2C1=Cc1cccc(F)c1F [10737/F05] | 67.1% |
| COc1ccc(C=C2C(=O)Nc3ccc(S(=O)(=O)N4CCOCC4)cc32)cc1F [10737/F06] | 62.8% |
| Cc1ccc(C)c(C=C2C(=O)Nc3ccc(S(=O)(=O)N4CCOCC4)cc32)c1 [10737/F07] | 33.3% |
| O=C1Nc2ccc(S(=O)(=O)N3CCOCC3)cc2C1=Cc1ccc2ccccc2c1 [10737/F08] | 76.1% |
| O=C1Nc2ccc(S(=O)(=O)N3CCOCC3)cc2C1=Cc1ccc(Oc2ccccc2)cc1 [10737/F09] | 76.5% |
| CC(C)(C)c1ccc(Oc2cccc(C=C3C(=O)Nc4ccc(S(=O)(=O)N5CCOCC5)cc43)c2)cc1 [10737/F10] | 78.6% |
| O=C1Nc2ccc(S(=O)(=O)N3CCOCC3)cc2C1=Cc1cccc(Oc2cccc(C(F)(F)F)c2)c1 [10737/F11] | 75.6% |
| CCOc1ccc(C=C2C(=O)Nc3ccc(CCCl)cc32)cc1 [10737/G02] | 32.2% |
| Cc1ccc(C=C2C(=O)Nc3ccc(CCCl)cc32)c(C)c1 [10737/G03] | 37.4% |
| O=C1Nc2ccc(CCCl)cc2C1=Cc1cc(F)ccc1F [10737/G04] | 49.1% |
| O=C1Nc2ccc(CCCl)cc2C1=Cc1cccc(F)c1F [10737/G05] | 53.2% |
| COc1ccc(C=C2C(=O)Nc3ccc(CCCl)cc32)cc1F [10737/G06] | 50.7% |
| Cc1ccc(C)c(C=C2C(=O)Nc3ccc(CCCl)cc32)c1 [10737/G07] | 41.8% |
| O=C1Nc2ccc(CCCl)cc2C1=Cc1ccc2ccccc2c1 [10737/G08] | 31.2% |
| O=C1Nc2ccc(CCCl)cc2C1=Cc1ccc(Oc2ccccc2)cc1 [10737/G09] | 37.9% |
| CC(C)(C)c1ccc(Oc2cccc(C=C3C(=O)Nc4ccc(CCCl)cc43)c2)cc1 [10737/G10] | 22.8% |
| O=C1Nc2ccc(CCCl)cc2C1=Cc1cccc(Oc2cccc(C(F)(F)F)c2)c1 [10737/G11] | 35.1% |
| CCOc1ccc(C=C2C(=O)Nc3c(Br)cc(Br)c(C)c32)cc1 [10737/H02] | 42.9% |
| Cc1ccc(C=C2C(=O)Nc3c(Br)cc(Br)c(C)c32)c(C)c1 [10737/H03] | 46.1% |
| Cc1c(Br)cc(Br)c2c1C(=Cc1cc(F)ccc1F)C(=O)N2 [10737/H04] | 63.0% |
| Cc1c(Br)cc(Br)c2c1C(=Cc1cccc(F)c1F)C(=O)N2 [10737/H05] | 76.5% |
| COc1ccc(C=C2C(=O)Nc3c(Br)cc(Br)c(C)c32)cc1F [10737/H06] | 28.7% |
